The record followed here is US20090170810A1, “METHODS OF TREATMENT OF CARDIOVASCULAR AND CEREBROVASCULAR DISEASES WITH LOW MOLECULAR WEIGHT FUCOIDAN” (Beijing Century Biocom Pharmaceutical Technology Co. Ltd., priority 2006, published 2009).

Assay [1] has as its system decapitated mice. Briefly: Brain index and brain water content in decapitated mice. It counts as in vivo, ICR mice. The settings on record: 2 mg/kg. How it is done: (§1) ICR mice (equally divided between male and female) were divided randomly in a blank control group, a positive control group and dosage groups of sample A (200, 100, and 50 mg/kg) and sample B (400, 200, 100, 50 mg/kg). The mice in medical groups were administrated by tail intravenous injection, and the dosage was […]. The positive control group was administrated nimodipine (2 mg/kg) by tail intravenous injection. The model group was administrated normal salt. At 15 minutes after administration, the mice were decapitated by a pair of scissors. The mouth breathing time, breathing frequency and brain water content were recorded and compared with other groups.
Measurement of brain water content: whole brains were collected, after the wet weight was obtained, they were dried in an oven at 100° C. for 24 hours, the average value was taken to calculate brain water content: brain water content(%)=[…]. Brain index: brain index=brain wet weight (g)/body weight (g)×100%.

The next assay deals with brain of ischemic mice. The experiment in a line: Cerebral ischemia in mice with common carotid artery ligation and reperfusion (brain LDH, SOD). To be noted: 2 mg/kg. It counts as in vivo. How it is done:
Experimental grouping: a control group and a model group (respectively administrating an equal volume of normal salt), a positive control group (nimodipine, 2 mg/kg), sample A groups (200, 100, and 50 mg/kg), and sample B groups (200, 100, and 50 mg/kg), the injection dosage being […].
Animal model setup: the grouped mice were respectively administrated test substance, nimodipine or normal salt by tail intravenous injection. After 15 minutes, the mice were anesthetized with 3.5% chloral hydrate, fixed in the back. The right and left common carotid artery and vagus nerve were exposed, and 4-0 suture was inserted under the bilateral carotid arteries. The line was tightened to block blood flow for 5 minutes. Then the line was loosened to make the blood reperfusion for 10 minutes. The operation was repeated three times, and an ischemia-reperfusion model in mice was established. After the last reperfusion, the mice were decapitated and brain collected. In the control group, only the bilateral carotid arteries were exposed, without line being inserted.

In assay [2] the test system is decapitated mice. Briefly: Breathing time and breathing frequency in decapitated mice. It is filed as in vivo, ICR mice. To be noted: 2 mg/kg, tail i.v., decapitated 15 minutes after administration. How it is done:
as §1

With `COCCOC(=O)C1=C(C)NC(C)=C(C(=O)OC(C)C)C1c1cccc([N+](=O)[O-])c1` (stereo not drawn) [Nimodipine, nimodipine], in the assay with decapitated mice [1], the “Brain index (%)” value is reported as 1.40 ± 0.14 % and the “Brain water content (%)” value came out at 75.1 ± 0.9 %. In addition, in the assay on brain of ischemic mice, the “LDH (U/mg)” value is given as 11.3 ± 6.6 U/mg and the “SOD (U/mg)” value is listed as 144.77 ± 21.61 U/mg. Further, in the assay on decapitated mice [2], the “Breathing frequency (times)” value is 17.0 ± 3.2 times and the “Breathing time” value worked out at 23.8 ± 3.2 s.
